In patent publication US8785452B2, “Anti-infective compounds” (priority 2008, dated 2014):
Read-outs that look alike come from different tables or passages of the source.

Legend:
[1] = system: Raw264.7 cells; conditions: mouse
[2] = system: M. tuberculosis H37Rv-GFP; test: microbe, parasite or virus in culture; type: cell-based, Mycobacterium tuberculosis; conditions: Mycobacterium tuberculosis, H37RV, Macrophage
[3] = system: Raw264.7 cells; test: Cell number (CellNb) from image analysis of the phenotypic cell-based assay
[4] = confirmation, 20 uM, read-out: QIM Confirm % Inhibition 20 uM
[5] = primary screen, 20 μM, read-out: Primary QIM % Inhibition
[6] = read-out: Primary QIM % Inhibition
[7] = read-out: QIM Confirm % Inhibition 20 uM

| SMILES | Primary QIM CellNb ([1]; 5 days, 20 μM) | inhibition at 20 µM [2, 4] [%] | inhibition at 20 µM [2, 5] [%] | Primary QIM CellNb ([3]; primary screen, 20 μM) | further results |
| --- | --- | --- | --- | --- | --- |
| COc1c(O)cc(/C=N/NC(=O)c2ccncc2)cc1Br [IPK 000 078 30] | 97.0 | 105 | 108 | 388.3 |  |
| O=C(N/N=C/c1cccs1)c1ccncc1 [IPK 000 043 33] | 94.5 | 104 | 83 | 270.8 |  |
| CCOC(=O)CSc1nc(N)c(C(=O)Nc2ccc(N(C)C)cc2)s1 [IPK 000 105 70] | 4.7 | 84.6 | 61.2 | 315.5 |  |
| CC(/C=N/NC(=O)c1ccccn1)=C\c1ccco1 [IPK 000 110 79] | 22.8 | 83.4 | 72.9 | 462.3 |  |
| Nc1nonc1NC(=O)CSc1cccc2ccccc12 [IPK 000 106 30] | 28.5 | 67.2 | 65.7 | 146.5 |  |
| O=C(N/N=C/c1ccc([N+](=O)[O-])cc1)c1ccncc1 [IPK 000 041 48] | 97.5 | 88.4 | 84.5 | 315.3 |  |
| O=C(Nc1ccc(Cl)c(Cl)c1)c1ccc([N+](=O)[O-])cc1Cl [IPK 000 048 99] | 40.3 | 73.5 | 76.8 | 217.8 |  |
| CCN1C/C(=C\c2ccc3c(c2)OCO3)C(=O)/C(=C/c2ccc3c(c2)OCO3)C1 [IPK 000 102 52] | −7.0 | 68.1 | 70.4 | 179.8 |  |
| CN(C)c1ccc(/C=N/NC(=O)c2ccncc2)cc1 [IPK 000 042 96] | 101.1 | 105 | 84.3 | 216.3 |  |
| CCOc1ccccc1/C=N/NC(=O)c1ccncc1 [IPK 000 043 27] | 105.2 | 102 | 47.6 | 125.8 |  |
| COc1cccc(C2Nc3ccc(C(=O)O)cc3C3C=CCC32)c1 (stereo not drawn) [IPK 000 112 80] | 10.7 | 55.6 | 41.1 | 152.0 | QIM Confirm CellNb 2 uM ([1]; 5 days): 98.3; QIM Confirm CellNb 2 uM ([3]; confirmation): 189.0 |
| O=C(N/N=C/c1ccc[nH]1)c1ccccn1 [IPK 000 058 21] | 75.7 | 56 | 90.9 | 452.5 |  |
| COc1ccccc1/C=N/NC(=O)c1ccncc1 [IPK 000 043 01] | 103.6 | 103 | 86.6 | 287.8 |  |
| Oc1ccc(Br)cc1/C=N/c1ccccc1O [IPK 000 043 83] | 17.1 | 31.3 | -80.9 | 89.0 |  |
| Cc1cccn2c(=O)c(C=O)c(Nc3cccc(Cl)c3)nc12 [IPK 000 042 07] | 104.0 | 107 | 34.7 | 198.0 |  |
| Cc1ccc(/C=N/NC(=O)c2ccncc2)cc1 [IPK 000 041 50] | 102.2 | 90.8 | 81.6 | 296.3 |  |
| COc1ccc(/C=N/NC(=O)c2ccncc2)cc1OC [IPK 000 042 95] | 106.0 | 98.8 | 64.7 | 143.5 |  |
| CCOC(=O)C1=C(C)NC2=C(C(=O)CC(c3ccccc3)C2)C1c1cccc(O)c1 (stereo not drawn) [IPK 000 083 89] | 19.5 | 59.1 | 73.5 | 38.8 |  |
| O=C(Nc1sc2c(c1C(=O)Nc1ccccc1)CCC2)c1cccs1 [IPK 000 042 30] | 75.2 | 95.9 | 73.7 | 193.8 |  |
| O=C(Nc1ccc(Cl)cc1[N+](=O)[O-])c1ccc([N+](=O)[O-])cc1Cl [IPK 000 049 00] |  |  |  |  | Primary QIM CellNb [1]: 72.2; inhibition at 20 µM [2, 6]: 32.1%; inhibition at 20 µM [2, 7]: 74.2%; Primary QIM CellNb [3]: 108.0 |
| CC(NC(=O)c1cccc(Cl)c1)c1ccccc1 (stereo not drawn) [IPK 000 067 51] | 17.9 | 73.2 | 75.2 | 142.3 |  |
| CN1CCN(NC(=O)c2ccc(COc3ccc(Cl)cc3Cl)o2)CC1 [IPK 000 123 92] | 32.3 | 15.4 | 45.3 | 135.8 |  |

| SMILES | Primary QIM CellNb ([1]; 5 days, 20 μM) | inhibition at 20 µM [2, 4] [%] | inhibition at 20 µM [2, 5] [%] | Primary QIM CellNb ([3]; primary screen, 20 μM) | further results |
| --- | --- | --- | --- | --- | --- |
| CCCCc1ccc(C(=O)Nc2ccc(Br)cn2)cc1 [IPK 000 105 47] | 68.1 | 50.7 | 60.1 | 125.8 |  |
| O=C(O)COc1ccccc1/C=N/NC(=O)c1ccncc1 [IPK 000 105 19] | 104.1 | 106 | 98.7 | 374.3 | QIM Confirm CellNb 2 uM ([3]; confirmation): 566.4 |
| CCOc1ccc(/C(C)=N/NC(N)=S)cc1 [IPK 000 080 37] |  |  |  |  | Primary QIM CellNb [1]: 62.1; inhibition at 20 µM [2, 6]: -44%; inhibition at 20 µM [2, 7]: 36%; Primary QIM CellNb [3]: 110.8 |
| c1cc2c(cc1C13CC4CC(CC(C4)C1)C3)c1c3n2CCNC3CCC1 (stereo not drawn) [IPK 000 068 87] | −12.0 | 71.4 | 73.1 | 156.8 |  |
| COc1ccc(/C=N/NC(=O)c2ccncc2)c(OC)c1 [IPK 000 043 00] | 101.4 | 102 | 104 | 333.3 |  |
| O=C1CSC(N/N=C/c2cc([N+](=O)[O-])ccc2O)N1 (stereo not drawn) [IPK 000 109 00] | 23.8 | 8.2 | -7.8 | 87.8 |  |
| CCC(C)c1ccc(NC(=O)c2ccc(Cl)c([N+](=O)[O-])c2)cc1 (stereo not drawn) [IPK 000 048 71] | 22.6 | 70 | 62.1 | 56.5 |  |
| C=CCn1c(Cc2ccccc2)nc2c(cnn2-c2ccccc2)c1=O [IPK 000 073 11] | −10.5 | 56.1 | 49.1 | 147.8 | QIM Confirm CellNb 0.2 uM ([1]; 5 days, 0.2 uM): 67.2 |
| CCCCN(CCCC)C(=O)c1ccc(C(C)(C)C)cc1 [IPK 000 067 60] | 25.8 | 46.6 | 63.4 | 164.3 | QIM Confirm CellNb 2 uM ([1]; 5 days): 99.7; QIM Confirm CellNb 2 uM ([3]; confirmation): 179.1 |
| O=C(N/N=C/c1cc(Br)cc([N+](=O)[O-])c1O)c1ccncc1 [IPK 000 080 81] | 104.9 | 99.5 | 94.7 | 363.3 |  |
| Cn1cc(/C=N/NC(=O)c2cccc(F)c2)c2ccccc21 [IPK 000 104 11] | 19.9 | 83.3 | 89.7 | 203.8 |  |
| Cc1ccc(C(=O)NC2CCCCCC2)cc1[N+](=O)[O-] [IPK 000 047 06] | 17.6 | 69.9 | 57.3 | 290.8 |  |
| CC(/C=N/NC(=O)c1ccncc1)c1ccccc1 (stereo not drawn) [IPK 000 105 20] | 103.8 | 96.4 | 97.1 | 316.5 |  |
| O=C(Nc1cc(Cl)cc(Cl)c1)c1ccc([N+](=O)[O-])cc1Cl [IPK 000 049 03] | 56.0 | 48.6 | 62.6 | 205.3 |  |
| O=C(N/N=C/c1ccc(O)cc1)c1ccncc1 [IPK 000 043 07] | 102.5 | 98.6 | 104 | 303.5 |  |
| NNC(=O)c1ccc(COc2ccccc2Cl)o1 [IPK 000 123 03] | 12.0 | 72.1 | 78.3 | 540.8 |  |
| O=[N+]([O-])c1cc2c(cc1/C=N/c1ccc(S(=O)(=O)Nc3nccs3)cc1)OCO2 [IPK 000 057 78] | 12.6 | 35.5 | -10.9 | 177.0 |  |
| C=C(N/N=C/c1cccc(C)n1)c1nn(Cc2ccc(Br)cc2)cc1Br [IPK 000 091 17] | 35.4 | 75.7 | 75.6 | 191.5 |  |
| O=C(N/N=C/c1ccccc1[N+](=O)[O-])c1ccncc1 [IPK 000 043 35] | 94.4 | 101 | 104 | 245.5 | QIM Confirm CellNb 20 uM ([3]; confirmation, 20 uM): 461.5 |
| O=C(N/N=C/c1cc2ccccc2[nH]1)c1ccncc1 [IPK 000 043 12] | 104.6 | 100 | 69.9 | 195.0 |  |
| Cc1ccc(NC(=O)c2ccc([N+](=O)[O-])cc2Cl)cc1C [IPK 000 047 15] | 61.1 | 85.8 | 69.7 | 281.8 |  |
| CC(C)c1ccc(/C=N/NC(=O)c2ccncc2)cc1 [IPK 000 043 32] | 94.5 | 102 | 60.5 | 164.0 |  |
